How the values were obtained:
Type in all cases: in vivo
[1] = system: Amaranthus retoflexus (AMARE); assay: Post-emergence herbicidal glasshouse test; conditions: comparative post-emergence test
Method in brief: (§1)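 Plants were sprayed one day after sowing (pre-emergence) or after 8 days' growth (post-emergence) at 250 g/ha unless otherwise stated, in acetone/water (50:50) with 0.5% Tween 20. Glasshouse conditions were 24/16 °C, 14 h light, 65% humidity. Damage was scored after 13 days on a five-point scale (5=81-100%; 1=0-20%).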

[2] = system: Echinochloa crus-galli (ECHCG); assay: Post-emergence herbicidal glasshouse test; conditions: comparative post-emergence test
Method in brief: as §1

[3] = system: Ipomoea hederacea (IPOHE); assay: Post-emergence herbicidal glasshouse test; conditions: comparative post-emergence test
Method in brief: as §1

Lolium perenne (LOLPE) [4] = assay: Post-emergence herbicidal glasshouse test; conditions: comparative post-emergence test
Method in brief: as §1

Setaria faberi (SETFA) [5] = assay: Post-emergence herbicidal glasshouse test; conditions: comparative post-emergence test
Method in brief: as §1

Solanum nigrum (SOLNI) [6] = assay: Post-emergence herbicidal glasshouse test; conditions: comparative post-emergence test
Method in brief: as §1

[7] = system: Amaranthus retoflexus (AMARE); assay: Pre-emergence herbicidal glasshouse test; conditions: comparative pre-emergence test
Method in brief: as §1

[8] = system: Echinochloa crus-galli (ECHCG); assay: Pre-emergence herbicidal glasshouse test; conditions: comparative pre-emergence test
Method in brief: as §1

[9] = system: Ipomoea hederacea (IPOHE); assay: Pre-emergence herbicidal glasshouse test; conditions: comparative pre-emergence test
Method in brief: as §1

Lolium perenne (LOLPE) [10] = assay: Pre-emergence herbicidal glasshouse test; conditions: comparative pre-emergence test
Method in brief: as §1

Setaria faberi (SETFA) [11] = assay: Pre-emergence herbicidal glasshouse test; conditions: comparative pre-emergence test
Method in brief: as §1

Solanum nigrum (SOLNI) [12] = assay: Pre-emergence herbicidal glasshouse test; conditions: comparative pre-emergence test
Method in brief: as §1

O=C(O)C(Cl)(Cl)c1cccc(Cl)c1Cl [Compound C1, reference compound]
% phytotoxicity AMARE ([1]; 500 g/ha): 80% | % phytotoxicity AMARE ([1]; 1000 g/ha): 80% | % phytotoxicity ECHCG ([2]; 500 g/ha): 0% | % phytotoxicity ECHCG ([2]; 1000 g/ha): 10% | % phytotoxicity IPOHE ([3]; 500 g/ha): 70% | % phytotoxicity IPOHE ([3]; 1000 g/ha): 80% | % phytotoxicity LOLPE (Lolium perenne (LOLPE) [4]; 500 g/ha): 0% | % phytotoxicity LOLPE (Lolium perenne (LOLPE) [4]; 1000 g/ha): 20% | % phytotoxicity SETFA (Setaria faberi (SETFA) [5]; 500 g/ha): 0% | % phytotoxicity SETFA (Setaria faberi (SETFA) [5]; 1000 g/ha): 10% | % phytotoxicity SOLNI (Solanum nigrum (SOLNI) [6]; 500 g/ha): 60% | % phytotoxicity SOLNI (Solanum nigrum (SOLNI) [6]; 1000 g/ha): 70% | % phytotoxicity AMARE ([7]; 500 g/ha): 80% | % phytotoxicity AMARE ([7]; 1000 g/ha): 80% | % phytotoxicity ECHCG ([8]; 500 g/ha): 0% | % phytotoxicity ECHCG ([8]; 1000 g/ha): 0% | % phytotoxicity IPOHE ([9]; 500 g/ha): 30% | % phytotoxicity IPOHE ([9]; 1000 g/ha): 60% | % phytotoxicity LOLPE (Lolium perenne (LOLPE) [10]; 500 g/ha): 0% | % phytotoxicity LOLPE (Lolium perenne (LOLPE) [10]; 1000 g/ha): 0% | % phytotoxicity SETFA (Setaria faberi (SETFA) [11]; 500 g/ha): 0% | % phytotoxicity SETFA (Setaria faberi (SETFA) [11]; 1000 g/ha): 0% | % phytotoxicity SOLNI (Solanum nigrum (SOLNI) [12]; 500 g/ha): 60% | % phytotoxicity SOLNI (Solanum nigrum (SOLNI) [12]; 1000 g/ha): 70%
